system: EPO; experiment: Determination of EPO inhibition rate by compounds using Hep3B cells (EPO ELISA of culture supernatant); assay type: cell-based; conditions: Homo sapiens, EPO induced with 30 μM (6′-hydroxy-3′-(4-methoxyphenyl)-8′-oxo-8′H-spiro[cyclopentane-1,5′-indolizine]-7′-carbonyl)glycine or its analogues, test compound 48 hours
Procedure: Hep3B cells (from the Cell Bank of the Chinese Academy of Sciences, TCHu106) were seeded in a plate at a density of 5×10^4/mL and incubated overnight at 37° C. in a 5% CO2 incubator (Thermo Scientific BB150). The next day, the culture medium was replaced with medium containing 0.5% FBS (VivaCell C04001-500) to starve the cells for 6 hours. Subsequently, a DMSO solution of (6′-hydroxy-3′-(4-methoxyphenyl)-8′-oxo-8′H-spiro[cyclopentane-1,5′-indolizine]-7′-carbonyl)glycine or its analogues was added to achieve a final concentration of 30 μM. The plate was returned to the 37° C., 5% CO2 incubator for an additional 24 hours. Then, a DMSO solution of the test compound was added to achieve final concentrations of 30000 nM, 7500 nM, 1875 nM, 469 nM, 117 nM, 29 nM, 7.3 nM, 1.8 nM, 0.5 nM, and 0 nM (ten concentrations in total). Treatment continued for 48 hours. Cell culture supernatants were collected for EPO ELISA detection. The assay was performed according to the instructions of the ELISA kit (Sangon Biotech (Shanghai) Co., Ltd., D711311-0096). Absorbance was read at a wavelength of 450 nm using a microplate reader (Thermo Scientific Multiskan Go, 511191200).
The compound inhibition rate was calculated using the formula: Inhibition Rate=1-100%*(EPO value of the treated well−EPO value of the blank well)/(EPO value of the Control well−EPO value of the blank well). The IC50 value was calculated by linear fitting of the inhibition rates. Herein, the Control well refers to the cell-containing well treated for 72 hours with a DMSO solution containing 0 nM of the test compound but containing 30 μM of (6′-hydroxy-3′-(4-methoxyphenyl)-8′-oxo-8′H-spiro[cyclopentane-1,5′-indolizine]-7′-carbonyl)glycine or its analogues. The EPO level in this well was set as 100%. The blank well refers to a cell-containing well without the addition of any compound.

| Compound | IC50 [nM] |
| --- | --- |
| FC1=Cc2c(ccnc2Cl)[C@]2(C1)CN1C=C(C(F)(F)F)C=C(OC(F)F)C1=N2 (single isomer, unassigned) [Example 10-A] | 2150 |
| Fc1cccc2c1C=CC[C@]21CN2C=C(C(F)(F)F)C=C(OC(F)F)C2=N1 (single isomer, unassigned) [Example 16-B] | 20.4 |
| Fc1c(Br)ccc2c1C(I)=CCC21CN2C=C(C(F)(F)F)C=C(OC(F)F)C2=N1 (stereo not shown) [Example 13, 6′-Bromo-8-difluoromethoxy-5′-fluoro-4′-iodo-6-trifluoromethyl-2′H,3H-spiro[imidazo[1,2-a]pyridine-2,1′-naphthalene]] | 116 |
| Fc1cccc2c1C=CCC21CN2C=C(C(F)(F)F)C=C(OC(F)F)C2=N1 (racemic) [Example 16, 8-(Difluoromethoxy)-5′-fluoro-6-trifluoromethyl-2′H,3H-spiro[imidazo[1,2-a]pyridine-2,1′-naphthalene]] | 7.01 |
| FC1=CCC2(CN3C=C(C(F)(F)F)C=C(OC(F)F)C3=N2)c2cccc(F)c21 (racemic) [Example 15, 8-(Difluoromethoxy)-4′,5′-difluoro-6-(trifluoromethyl)-2′H,3H-spiro[imidazo[1,2-a]pyridine-2,1′-naphthalene]] | 3.04 |
| FC(F)OC1=CC(C(F)(F)F)=CN2C[C@]3(CC=Cc4c3ccnc4Cl)N=C12 (single isomer, unassigned) [Example 2-A] | 365 |
| Cc1nccc2c1C=CCC21CN2C=C(C(F)(F)F)C=C(OC(F)F)C2=N1 (stereo not shown) [Example 17, 8-Difluoromethoxy-1′-methyl-6-trifluoromethyl-3H,6′H-spiro[imidazo[1,2-a]pyridine-2,5′-isoquinoline]] | 705 |
| FC1=CC[C@@]2(CN3C=C(C(F)(F)F)C=C(OC(F)F)C3=N2)c2cccc(F)c21 (single isomer, unassigned) [Example 15-A] | 2.12 |
| FC(F)OC1=CC(C(F)(F)F)=CN2CC3(CC=Cc4c3ccnc4Cl)N=C12 (racemic) [Example 2, 1′-Chloro-8-difluoromethoxy-6-trifluoromethyl-3H,6′H-spiro[imidazo[1,2-a]pyridine-2,5′-isoquinoline]] | 35.8 |
| FC1=CC[C@]2(CN3C=C(C(F)(F)F)C=C(OC(F)F)C3=N2)c2ccnc(Cl)c21 (single isomer, unassigned) [Example 1-B] | 563 |
| FC1=CCC2(CN3C=C(C(F)(F)F)C=C(OC(F)F)C3=N2)c2ccc(Br)c(F)c21 (stereo not shown) [Example 11, 6′-Bromo-8-difluoromethoxy-4′,5′-difluoro-6-trifluoromethyl-2′H,3H-spiro[imidazo[1,2-a]pyridine-2,1′-naphthalene]] | 12.2 |
| FC1=CC[C@@]2(CN3C=C(C(F)(F)F)C=C(OC(F)F)C3=N2)c2ccnc(Cl)c21 (single isomer, unassigned) [Example 1-A] | 17.9 |
| FC(F)OC1=CC(C(F)(F)F)=CN2CC3(CC(Cl)=Cc4c3ccnc4Cl)N=C12 (stereo not shown) [Example 9, 1′,7′-Dichloro-8-difluoromethoxy-6-trifluoromethyl-3H,6′H-spiro[imidazo[1,2-a]pyridine-2,5′-isoquinoline]] | 47.9 |
| Fc1cccc2c1C(I)=CCC21CN2C=C(C(F)(F)F)C=C(OC(F)F)C2=N1 (stereo not shown) [Example 19, 8-Difluoromethoxy-5′-fluoro-4′-iodo-6-trifluoromethyl-2′H,3H-spiro[imidazo[1,2-a]pyridine-2,1′-naphthalene]] | 302 |
| O=[N+]([O-])c1c(Nc2cc(F)cc(Cl)c2)ccc2nonc12 [positive control compound, reference compound] | 497 |
| Fc1c(Br)ccc2c1C(Cl)=CCC21CN2C=C(C(F)(F)F)C=C(OC(F)F)C2=N1 (stereo not shown) [Example 14, 6′-Bromo-4′-chloro-8-difluoromethoxy-5′-fluoro-6-trifluoromethyl-2′H,3H-spiro[imidazo[1,2-a]pyridine-2,1′-naphthalene]] | 4.12 |
| FC(F)OC1=CC(C(F)(F)F)=CN2CC3(CC=C(Cl)c4c3ccnc4Cl)N=C12 (stereo not shown) [Example 7, 1′,8′-Dichloro-8-difluoromethoxy-6-trifluoromethyl-3H,6′H-spiro[imidazo[1,2-a]pyridine-2,5′-isoquinoline]] | 24.4 |
| CC1=CCC2(CN3C=C(C(F)(F)F)C=C(OC(F)F)C3=N2)c2ccnc(Cl)c21 (stereo not shown) [Example 6, 1′-Chloro-8-difluoromethoxy-8′-methyl-6-trifluoromethyl-3H,6′H-spiro[imidazo[1,2-a]pyridine-2,5′-isoquinoline]] | 181 |
| FC1=CC[C@]2(CN3C=C(C(F)(F)F)C=C(OC(F)F)C3=N2)c2cccc(F)c21 (single isomer, unassigned) [Example 15-B] | 109 |

More lines, now with the values ahead:

| IC50 [nM] | Compound |
| --- | --- |
| 148 | FC(F)OC1=CC(C(F)(F)F)=CN2CC3(CC=C(C(F)(F)F)c4c3ccnc4Cl)N=C12 (stereo not shown) [Example 8, 1′-Chloro-8-difluoromethoxy-6,8′-bis(trifluoromethyl)-3H,6′H-spiro[imidazo[1,2-a]pyridine-2,5′-isoquinoline]] |
| 3.48 | Cc1ccc2c(c1F)C=CCC21CN2C=C(C(F)(F)F)C=C(OC(F)F)C2=N1 (stereo not shown) [Example 18, 8-Difluoromethoxy-5′-fluoro-6′-methyl-6-trifluoromethyl-2′H,3H-spiro[imidazo[1,2-a]pyridine-2,1′-naphthalene]] |
| 18.7 | FC(F)OC1=CC(C(F)(F)F)=CN2C[C@@]3(CC=Cc4c3ccnc4Cl)N=C12 (single isomer, unassigned) [Example 2-B] |
| 26.9 | FC1=Cc2c(ccnc2Cl)[C@@]2(C1)CN1C=C(C(F)(F)F)C=C(OC(F)F)C1=N2 (single isomer, unassigned) [Example 10-B] |
| 1.08 | Fc1c(Br)ccc2c1C=CCC21CN2C=C(C(F)(F)F)C=C(OC(F)F)C2=N1 (stereo not shown) [Example 12, 6′-Bromo-8-(difluoromethoxy)-5′-fluoro-6-(trifluoromethyl)-2′H,3H-spiro[imidazo[1,2-a]pyridine-2,1′-naphthalene]] |
| 813 | FC(F)OC1=CC(C(F)(F)F)=CN2CC3(CC=Cc4cnccc43)N=C12 (stereo not shown) [Example 20, 8-Difluoromethoxy-6-trifluoromethyl-3H,6′H-spiro[imidazo[1,2-a]pyridine-2,5′-isoquinoline]] |
| 6.45 | Fc1cccc2c1C=CC[C@@]21CN2C=C(C(F)(F)F)C=C(OC(F)F)C2=N1 (single isomer, unassigned) [Example 16-A] |
| 29 | FC1=CCC2(CN3C=C(C(F)(F)F)C=C(OC(F)F)C3=N2)c2ccnc(Cl)c21 (racemic) [Example 1, 1′-Chloro-8-difluoromethoxy-8′-fluoro-6-trifluoromethyl-3H,6′H-spiro[imidazo[1,2-a]pyridine-2,5′-isoquinoline]] |
| 26.8 | FC1=Cc2c(ccnc2Cl)C2(C1)CN1C=C(C(F)(F)F)C=C(OC(F)F)C1=N2 (racemic) [Example 10, 1′-Chloro-8-difluoromethoxy-7′-fluoro-6-trifluoromethyl-3H,6′H-spiro[imidazo[1,2-a]pyridine-2,5′-isoquinoline]] |
